According to PubChem BioAssay AID248 (DTP/NCI, 2004):
Toxic doses and inconclusive results are not listed.

Test system: L1210 leukemia ip in BDF1 mice, survival T/C
Test: NCI In Vivo Anticancer Drug Screen. Data for tumor model L1210 Leukemia (intraperitoneal) in B6D2F1 (BDF1) mice
Conditions: endpoint: mean survival time, higher = longer survival
In short: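 Tumor was transplanted into mice, which were then dosed with test compound or vehicle alone. Survival was recorded for each group, and the treated figure was expressed relative to the control figure.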

[1] = dose: 50.0 mg/kg/injection, schedule: Q01DX001 (ip), vehicle: carboxymethylcellulose (CMC)
[2] = dose: 100.0 mg/kg/injection, schedule: Q01DX009 (ip), vehicle: Klucel (hydroxypropylcellulose) (HPC)
[3] = dose: 200.0 mg/kg/injection, schedule: Q01DX009 (ip), vehicle: Klucel (hydroxypropylcellulose) (HPC)
[4] = dose: 400.0 mg/kg/injection, schedule: Q01DX009 (ip), vehicle: Klucel (hydroxypropylcellulose) (HPC)
[5] = dose: 100.0 mg/kg/injection, schedule: Q01DX001 (ip), vehicle: Klucel (hydroxypropylcellulose) (HPC)
[6] = dose: 200.0 mg/kg/injection, schedule: Q01DX001 (ip), vehicle: Klucel (hydroxypropylcellulose) (HPC)
[7] = dose: 400.0 mg/kg/injection, schedule: Q01DX001 (ip), vehicle: Klucel (hydroxypropylcellulose) (HPC)
[8] = dose: 50.0 mg/kg/injection, schedule: Q04DX003 (ip), vehicle: saline with Tween-80
[9] = dose: 100.0 mg/kg/injection, schedule: Q04DX003 (ip), vehicle: saline with Tween-80
[10] = dose: 200.0 mg/kg/injection, schedule: Q04DX003 (ip), vehicle: saline with Tween-80
[11] = dose: 100.0 mg/kg/injection, schedule: Q01DX009 (ip), vehicle: saline with Tween-80
[12] = dose: 200.0 mg/kg/injection, schedule: Q01DX009 (ip), vehicle: saline with Tween-80
[13] = dose: 400.0 mg/kg/injection, schedule: Q01DX009 (ip), vehicle: saline with Tween-80
[14] = dose: 50.0 mg/kg/injection, schedule: Q01DX009 (ip), vehicle: saline
[15] = dose: 100.0 mg/kg/injection, schedule: Q01DX001 (ip), vehicle: saline
[16] = dose: 200.0 mg/kg/injection, schedule: Q01DX001 (ip), vehicle: saline
[17] = dose: 400.0 mg/kg/injection, schedule: Q01DX001 (ip), vehicle: saline
[18] = dose: 100.0 mg/kg/injection, schedule: Q01DX001 (ip), vehicle: carboxymethylcellulose (CMC)
[19] = dose: 200.0 mg/kg/injection, schedule: Q01DX001 (ip), vehicle: carboxymethylcellulose (CMC)
[20] = dose: 400.0 mg/kg/injection, schedule: Q01DX001 (ip), vehicle: carboxymethylcellulose (CMC)

## O=C(CN1CC1)NCCCCCCCCNC(=O)CN1CC1
dose: 4.4 mg/kg/injection, schedule: Q01DX001 (ip), vehicle: carboxymethylcellulose (CMC)
  T/C: 108 % of control
dose: 6.6 mg/kg/injection, schedule: Q01DX001 (ip), vehicle: carboxymethylcellulose (CMC)
  T/C: 115 % of control
dose: 7.0 mg/kg/injection, schedule: Q01DX009 (ip), vehicle: carboxymethylcellulose (CMC)
  T/C: 97 % of control
dose: 10.0 mg/kg/injection, schedule: Q01DX001 (ip), vehicle: carboxymethylcellulose (CMC)
  T/C: 117 % of control
dose: 11.0 mg/kg/injection, schedule: Q01DX009 (ip), vehicle: carboxymethylcellulose (CMC)
  T/C: 112 % of control
dose: 15.0 mg/kg/injection, schedule: Q01DX001 (ip), vehicle: carboxymethylcellulose (CMC)
  T/C: 117 % of control
dose: 25.0 mg/kg/injection, schedule: Q01DX009 (ip), vehicle: carboxymethylcellulose (CMC)
  T/C: 118 % of control
dose: 33.0 mg/kg/injection, schedule: Q01DX009 (ip), vehicle: carboxymethylcellulose (CMC)
  T/C: 183 % of control
dose: 40.0 mg/kg/injection, schedule: Q04DX003 (ip), vehicle: Klucel (hydroxypropylcellulose) (HPC)
  T/C: 154 % of control
[1]
  T/C: 152 % of control
dose: 50.0 mg/kg/injection, schedule: Q01DX009 (ip), vehicle: carboxymethylcellulose (CMC)
  T/C: 104 % of control
dose: 60.0 mg/kg/injection, schedule: Q04DX003 (ip), vehicle: Klucel (hydroxypropylcellulose) (HPC)
  T/C: 173 % of control
dose: 90.0 mg/kg/injection, schedule: Q04DX003 (ip), vehicle: Klucel (hydroxypropylcellulose) (HPC)
  T/C: 97 % of control

## CCCCN(CCCC)C(=S)S[As](SC(=S)N(CCCC)CCCC)SC(=S)N(CCCC)CCCC
[2]
  T/C: 97 % of control
[3]
  T/C: 90 % of control
[4]
  T/C: 97 % of control

## COc1ccc(/C=N/NC(=O)c2ccccc2)c(OC)c1
[2]
  T/C: 100 % of control
[3]
  T/C: 100 % of control
[4]
  T/C: 103 % of control

## Cc1ccc(-n2c(O)c(N=Nc3ccccc3C)c(=O)n(-c3ccccc3)c2=S)cc1
[5]
  T/C: 94 % of control
[6]
  T/C: 104 % of control
[7]
  T/C: 99 % of control

## O=C(O)/C=C/C(=O)Nc1ccc(I)cc1
[8]
  T/C: 104 % of control
[9]
  T/C: 104 % of control
[10]
  T/C: 104 % of control

## Cc1ccc(Nc2n[nH]c(=S)s2)cc1C
[11]
  T/C: 93 % of control
[12]
  T/C: 92 % of control
[13]
  T/C: 106 % of control

## O=C(CN1CCOCC1)Nc1cccc(C(F)(F)F)c1
[11]
  T/C: 96 % of control
[9]
  T/C: 101 % of control
[12]
  T/C: 104 % of control
[10]
  T/C: 111 % of control
[13]
  T/C: 109 % of control
dose: 400.0 mg/kg/injection, schedule: Q04DX003 (ip), vehicle: saline with Tween-80
  T/C: 97 % of control

## CN(C)CCCCl
dose: 25.0 mg/kg/injection, schedule: Q01DX Z (ip), vehicle: other
  T/C: 102 % of control
[14]
  T/C: 90 % of control
dose: 50.0 mg/kg/injection, schedule: Q01DX Z (ip), vehicle: other
  T/C: 102 % of control
dose: 75.0 mg/kg/injection, schedule: Q04DX003 (ip), vehicle: saline
  T/C: 101 % of control
dose: 100.0 mg/kg/injection, schedule: Q01DX Z (ip), vehicle: other
  T/C: 92 % of control
dose: 150.0 mg/kg/injection, schedule: Q04DX003 (ip), vehicle: saline
  T/C: 93 % of control

## O=C(OC12CCN(CC1)CC2)c1ccccc1
dose: 9.5 mg/kg/injection, schedule: Q01DX001 (ip), vehicle: saline
  T/C: 95 % of control
dose: 19.0 mg/kg/injection, schedule: Q01DX001 (ip), vehicle: saline
  T/C: 95 % of control

## C(#CP(c1ccccc1)c1ccccc1)P(c1ccccc1)c1ccccc1
dose: 50.0 mg/kg/injection, schedule: Q04DX003 (ip), vehicle: Klucel (hydroxypropylcellulose) (HPC)
  T/C: 98 % of control
dose: 100.0 mg/kg/injection, schedule: Q04DX003 (ip), vehicle: Klucel (hydroxypropylcellulose) (HPC)
  T/C: 101 % of control
dose: 200.0 mg/kg/injection, schedule: Q04DX003 (ip), vehicle: Klucel (hydroxypropylcellulose) (HPC)
  T/C: 102 % of control

## CCOc1ccc(C(c2ccc(OCC)cc2)C(Cl)(Cl)Cl)cc1
[5]
  T/C: 106 % of control
[6]
  T/C: 100 % of control
[7]
  T/C: 100 % of control

## COP(=O)(OC)C(=O)c1ccc([N+](=O)[O-])cc1
[15]
  T/C: 98 % of control
[16]
  T/C: 95 % of control
[17]
  T/C: 103 % of control

## OC1C(Br)CC(Br)C1O (configuration not stated)
dose: 100.0 mg/kg/injection, schedule: Q04DX002 (ip), vehicle: saline with Tween-80
  T/C: 97 % of control
dose: 200.0 mg/kg/injection, schedule: Q04DX002 (ip), vehicle: saline with Tween-80
  T/C: 93 % of control
dose: 400.0 mg/kg/injection, schedule: Q04DX002 (ip), vehicle: saline with Tween-80
  T/C: 101 % of control

## Nc1nc(=O)n(CCCOc2ccccc2)cc1-c1ccc(Cl)c(Cl)c1
dose: 100.0 mg/kg/injection, schedule: Q01DX001 (ip), vehicle: gum acacia
  T/C: 99 % of control
dose: 200.0 mg/kg/injection, schedule: Q01DX001 (ip), vehicle: gum acacia
  T/C: 94 % of control

## [O-]/[N+](C/[N+]([O-])=N\OCCCl)=N\OCCCl
[5]
  T/C: 91 % of control
[6]
  T/C: 91 % of control
[7]
  T/C: 91 % of control

## CC1N(C)CCC1(C)CN1c2ccccc2Sc2ccccc21 (configuration not stated)
dose: 100.0 mg/kg/injection, schedule: Q04DX003 (ip), vehicle: saline
  T/C: 108 % of control
dose: 200.0 mg/kg/injection, schedule: Q04DX003 (ip), vehicle: saline
  T/C: 102 % of control

## CCOC(OCC)c1cc[n+](CCc2ccc(OC)c(OC)c2)cc1
dose: 25.0 mg/kg/injection, schedule: Q01DX009 (ip), vehicle: saline
  T/C: 101 % of control
dose: 25.0 mg/kg/injection, schedule: Q04DX003 (ip), vehicle: saline with Tween-80
  T/C: 95 % of control
[14]
  T/C: 101 % of control
[8]
  T/C: 88 % of control
dose: 100.0 mg/kg/injection, schedule: Q01DX009 (ip), vehicle: saline
  T/C: 98 % of control
[9]
  T/C: 95 % of control

## CCC(C(=O)OC)C(=O)c1ccccc1 (configuration not stated)
dose: 50.0 mg/kg/injection, schedule: Q01DX001 (ip), vehicle: saline
  T/C: 107 % of control
[15]
  T/C: 102 % of control
[16]
  T/C: 107 % of control
[17]
  T/C: 96 % of control

## CC(=O)c1ccc2c(c1)sc1cc(C(C)=O)ccc12
[1]
  T/C: 96 % of control
[18]
  T/C: 100 % of control
[19]
  T/C: 90 % of control
[20]
  T/C: 90 % of control

## O=NN(CCCCl)C(=O)Nc1ccc(NC(=O)N(CCCCl)N=O)cc1
dose: 12.5 mg/kg/injection, schedule: Q01DX001 (ip), vehicle: carboxymethylcellulose (CMC)
  T/C: 111 % of control
dose: 25.0 mg/kg/injection, schedule: Q01DX001 (ip), vehicle: carboxymethylcellulose (CMC)
  T/C: 109 % of control
[1]
  T/C: 106 % of control
[18]
  T/C: 117 % of control
[19]
  T/C: 111 % of control
dose: 300.0 mg/kg/injection, schedule: Q01DX001 (ip), vehicle: carboxymethylcellulose (CMC)
  T/C: 111 % of control
[20]
  T/C: 106 % of control
dose: 500.0 mg/kg/injection, schedule: Q01DX001 (ip), vehicle: carboxymethylcellulose (CMC)
  T/C: 106 % of control
dose: 600.0 mg/kg/injection, schedule: Q01DX001 (ip), vehicle: carboxymethylcellulose (CMC)
  T/C: 109 % of control
dose: 800.0 mg/kg/injection, schedule: Q01DX001 (ip), vehicle: carboxymethylcellulose (CMC)
  T/C: 112 % of control
dose: 1000.0 mg/kg/injection, schedule: Q01DX001 (ip), vehicle: carboxymethylcellulose (CMC)
  T/C: 114 % of control

## CC(C)(C)SC(C)(C)C
[11]
  T/C: 96 % of control
[12]
  T/C: 96 % of control
[13]
  T/C: 96 % of control

## Clc1ccc(N/N=C(\Cc2ccccn2)c2ccccc2)cc1
dose: 100.0 mg/kg/injection, schedule: Q04DX003 (sc), vehicle: olive oil, sesame oil, peanut oil
  T/C: 101 % of control
dose: 200.0 mg/kg/injection, schedule: Q04DX003 (sc), vehicle: olive oil, sesame oil, peanut oil
  T/C: 110 % of control
dose: 400.0 mg/kg/injection, schedule: Q04DX003 (sc), vehicle: olive oil, sesame oil, peanut oil
  T/C: 103 % of control
